Data published in patent publication US20180282323A1, “Mesoionic imidazole derivatives as insecticides” (BAYER CROPSCIENCE AKTIENGESELLSCHAFT, priority 2015, published 2018).
Like-named read-outs stand apart in the source and are kept apart here.

Key:
Myzus persicae [1] = test: Myzus persicae spray test (Chinese cabbage leaf discs); type: in vivo; conditions: application rate 500 g/ha, after 6 days
How it was run: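 Active ingredient was formulated in acetone/DMF and diluted with water containing 1000 ppm emulsifier. Chinese cabbage leaf discs infested with all aphid stages were sprayed, and % kill was scored after 6 days (100% = all aphids dead).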

Tetranychus urticae = Tetranychus urticae spray test, OP-resistant; type: in vivo; conditions: application rate 500 g/ha, bean leaf discs, all stages, after 6 days
Description: Tetranychus urticae—Spray Test, OP-Resistant Solvent: 78.0 parts by weight of acetone • • 1.5 parts by weight of dimethylformamide Emulsifier: alkylaryl polyglycol ether
To produce a suitable active ingredient formulation, 1 part by weight of active ingredient is dissolved with the stated parts by weight of solvent and made up with water containing an emulsifier concentration of 1000 ppm until the desired concentration is attained. To produce further test concentrations, the formulation is diluted with emulsifier-containing water.
Discs of bean leaves (Phaseolus vulgaris) infested with all stages of the greenhouse red spider mite (Tetranychus urticae) are sprayed with an active ingredient formulation of the desired concentration.
After 6 days, the efficacy in % is determined. 100% means that all the spider mites have been killed; 0% means that no spider mites have been killed.

Lucilia cuprina = Lucilia cuprina test; type: in vivo; conditions: application rate 100 ppm, L1 larvae, after 2 days
How it was run: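 About 20 L1 larvae placed in a vessel with minced horsemeat plus compound formulated in DMSO and diluted with water to the test concentration. Kill (%) scored after 2 days; 100% = all larvae dead, 0% = none dead.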

Boophilus microplus = Boophilus microplus injection test; type: in vivo; conditions: application rate 20 μg/animal, assessed after 7 days by laying of fertile eggs
Description: Boophilus microplus—Injection Test Solvent: dimethyl sulphoxide
To produce a suitable active ingredient formulation, 10 mg of active ingredient are mixed with 0.5 ml of solvent and the concentrate is diluted with solvent to the desired concentration.
1 μl of the active ingredient solution is injected into the abdomen of 5 engorged adult female cattle ticks (Boophilus microplus). The animals are transferred into dishes and kept in a climate-controlled room.
Efficacy is assessed after 7 days by laying of fertile eggs. Eggs which are not visibly fertile are stored in a climate-controlled cabinet until the larvae hatch after about 42 days. An efficacy of 100% means that none of the ticks has laid any fertile eggs; 0% means that all the eggs are fertile.

Myzus persicae [2] = test: Myzus persicae oral test; type: in vivo; conditions: application rate 20 ppm, oral uptake through parafilm, after 5 days
How it was run: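 Oral feeding format: mixed-stage Myzus persicae imbibe acetone/water compound formulation in sugared IPL41 medium through parafilm. Efficacy assessed as percent aphids killed at day 5.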

[3] = log P by HPLC on reversed-phase column (EEC directive 79/831 Annex V.A8); type: physicochemical; conditions: for chromatographic logP: reversed-phase C18 HPLC column
How it was run: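 Reversed-phase (C18) HPLC at 43° C, following EEC directive 79/831 Annex V.A8.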

Musca domestica = Musca domestica test; type: in vivo; conditions: application rate 100 ppm, adult houseflies, after 2 days
Description: Musca domestica Test Solvent: dimethyl sulphoxide
To produce a suitable active ingredient formulation, 10 mg of active ingredient are mixed with 0.5 ml of dimethyl sulphoxide, and the concentrate is diluted with water to the desired concentration.
Vessels containing a sponge treated with sugar solution and the active ingredient formulation of the desired concentration are populated with 10 adult houseflies (Musca domestica).
After 2 days, the kill in % is determined. 100% means that all of the flies have been killed; 0% means that none of the flies have been killed.

Ctenocephalides felis [4] = test: Ctenocephalides felis in vitro contact test with adult cat fleas; type: in vivo; conditions: application rate 5 μg/cm^2, after 48 h, adult cat fleas dead or moribund
Description: Ctenocephalides felis—In Vitro Contact Tests with Adult Cat Fleas
For the coating of the test tubes, 9 mg of active ingredient are first dissolved in 1 ml of acetone p.a. and then diluted to the desired concentration with acetone p.a. 250 μl of the solution are distributed homogeneously on the inner walls and the base of a 25 ml test tube by turning and rocking on an orbital shaker (rocking rotation at 30 rpm for 2 h). With 900 ppm of active ingredient solution and internal surface area 44.7 cm^2, given homogeneous distribution, an area-based dose of 5 μg/cm^2 is achieved.
After the solvent has evaporated off, the tubes are populated with 5-10 adult cat fleas (Ctenocephalides felis), sealed with a perforated plastic lid and incubated in a horizontal position at room temperature and ambient humidity. After 48 h, efficacy is determined. To this end, the test tubes are stood upright and the fleas are knocked to the base of the tube. Fleas which remain motionless at the base or move in an uncoordinated manner are considered to be dead or moribund.
100% efficacy means that all the fleas were dead or moribund. 0% efficacy means that no fleas were harmed.

Ctenocephalides felis [5] = test: Ctenocephalides felis oral test; type: in vivo; conditions: application rate 100 ppm in citrated cattle blood, after 2 days
Description: Ctenocephalides felis—Oral Test Solvent: dimethyl sulphoxide
For the purpose of production of a suitable active ingredient formulation, 10 mg of active ingredient are mixed with 0.5 ml of dimethyl sulphoxide. Dilution with citrated cattle blood gives the desired concentration.
About 20 unfed adult cat fleas (Ctenocephalides felis) are placed into a chamber which is closed at the top and bottom with gauze. A metal cylinder whose bottom end is closed with parafilm is placed onto the chamber. The cylinder contains the blood/active ingredient formulation, which can be imbibed by the fleas through the parafilm membrane.
After 2 days, the kill in % is determined. 100% means that all of the fleas have been killed; 0% means that none of the fleas have been killed.

SMILES	efficacy (Myzus persicae [1])	efficacy (Tetranychus urticae)	efficacy (kill in %) (Lucilia cuprina)	efficacy (Boophilus microplus)	pest or weed control at 20 ppm (Myzus persicae [2]; Myzus persicae, 120 h, read-out: efficacy)	chromatographic logP ([3]; pH 2.7, HPLC on reversed-phase column (footnote a), read-out: log p)	chromatographic logP ([3]; HPLC-MS, reversed-phase C18, 43° C., calibration with alkan-2-ones, read-out: log P)	efficacy (kill in %) (Musca domestica)	efficacy (Myzus persicae [2])	efficacy (Ctenocephalides felis [4])	efficacy (kill in %) (Ctenocephalides felis [5])	log p ([3]; HPLC on reversed-phase column (footnote a))
O=C(Cn1cccn1)c1c([O-])n(Cc2cnc(Cl)s2)c2cccc[n+]12 [Example I-1-009, 1-[(2-Chloro-1,3-thiazol-5-yl)methyl]-3-(1H-pyrazol-1-ylacetyl)-1H-imidazo[1,2-a]pyridin-4-ium-2-olate]	90%	90%	100%	100%	100%	1.47	1.47					
COCC(=O)c1c([O-])n(Cc2ccc(Cl)nc2)c2cccc[n+]12 [Example I-1-003]	100%		100%	80%				80%	100%	100%	95%	1.18
